COc1ccccc1N1CCN(CC(O)COc2cccc3ccccc23)CC1 (stereo not given)
solubility (mole fraction)
Settings	288.15 K	293.15 K	298.15 K	303.15 K	308.15 K	313.15 K	318.15 K	323.15 K	328.15 K
in DMSO	–	0.0283	0.0323	0.0367	0.0416	0.0468	0.0527	0.059	0.066
in ethanol	0.00142	0.00163	0.00189	0.00216	0.00244	0.00277	0.00314	0.00355	0.00397
in isopropanol	0.000714	0.000827	0.000959	0.00111	0.00127	0.00145	0.00165	0.00186	0.00213
in water	2.07e-06	2.69e-06	3.46e-06	4.43e-06	5.65e-06	7.05e-06	8.85e-06	1.09e-05	1.37e-05
